PubChem BioAssay AID1508591

Conditions: rat; liver microsomes; pH 7.4; 15.0 min; 1.0 µM
For `Cc1ccccc1NC(=O)Nc1cccs1`, the half-life was over 30 min. Compound `COc1cc(C2c3cc(O)c(OC)cc3CC3C(=O)OCC32)ccc1O` (stereo not given) has a half-life of 21.1 min. `O=C(Nc1ncc(-c2ccccc2)s1)c1ccc(-c2cccc([N+](=O)[O-])c2)o1` gave a half-life of over 30 min. `CCOC(=O)c1nnc(N[S+](=O)([O-])c2ccc(NC(=O)Cc3ccc(Cl)c(Cl)c3)cc2)s1` showed a half-life of 6 min. `CN1CCN(CCCN2c3ccccc3Sc3ccc(S(=O)(=O)N(C)C)cc32)CC1` gave a half-life of 1.95 min. `CC(C)(C)OC(=O)NC1CCN(c2nc(-c3ccc(Br)cc3)cs2)CC1` showed a half-life of over 30 min. Work on `O=C(Nc1ccc2oc(-c3cccnc3)nc2c1)c1ccc(-c2ccccc2)o1` yielded a half-life of 14.4 min. `Cc1ccc(S(=O)(=O)Nc2ccc(C(=O)Nc3nc(-c4ccccc4)cs3)cc2Cl)cc1` showed a half-life of 4 min. `N#Cc1nc(-c2cccc3ccccc23)oc1NCc1ccccc1` gave a half-life of 8.6 min. `N[C@H]1CN(c2c(F)cc3c(=O)c(C(=O)O)cn(C4C[C@@H]4F)c3c2Cl)CC12CC2` (stereo not given in full) showed a half-life of over 30 min. For `CCOc1ccc(N2C(=O)c3n[nH]c(-c4cccs4)c3C2c2cccc(F)c2)cc1` (stereo not given), the half-life was 14.2 min. In the case of `Cn1nnnc1Sc1ncnc2scc(Br)c12`, the half-life is reported as 19.6 min. With `CC(=O)c1c(C)[nH]c(C(=O)Nc2cccc([S+](=O)([O-])Nc3ccc(C#N)cc3)c2)c1C` the half-life was over 30 min. Work on `CC(C)N(CCCNC(=O)Nc1ccc(C(C)(C)C)cc1)C[C@H]1O[C@@H](n2ccc3c(N)ncnc32)[C@H](O)[C@@H]1O` yielded a half-life of 2.42 min. Work on `COc1ccc(Nc2ncnc3c2cnn3-c2ccc(C)cc2)cc1Cl` yielded a half-life of over 30 min. For `Cc1ccc(-c2cc(C(=O)Nc3ccc(C#N)cc3)c3ccccc3n2)cc1C`, the half-life was over 30 min. Work on `O=C(NC1CC1)C1CCCN1C(=O)c1cccc(-c2ccccn2)c1` (stereo not given) yielded a half-life of over 30 min. In the case of `O=C1Nc2ccccc2/C1=C\c1ccc(C(=O)O)cc1`, the half-life is reported as over 30 min. With `Cc1cccc(-n2cnc3cc(C(=O)N4CCCCCC4)ccc32)c1` the half-life was 2.9 min. `Cc1ccc(S(=O)(=O)Nc2cc(Br)ccc2C(=O)Nc2nc(-c3ccccc3)cs2)cc1` gave a half-life of 9.6 min. With `CC(C)c1cc(C(C)C)c(CC(=O)NS(=O)(=O)Oc2c(C(C)C)cccc2C(C)C)c(C(C)C)c1` the half-life was 28.2 min. In the case of `N#Cc1nc(-c2cccc3ccccc23)oc1NC1CNC1`, the half-life is reported as over 30 min. Work on `CN(C)C(=O)C1CCN(c2nc(-c3ccc(Br)cc3)cs2)CC1` yielded a half-life of over 30 min. In the case of `COC(=O)Nc1nc2ccc(C(=O)c3ccccc3)cc2[nH]1`, the half-life is reported as over 30 min. `Cc1cnc(-c2ccccc2C(C)C)nc1NCc1ccc(-n2ccnn2)cc1` showed a half-life of 10.3 min. `CS(=O)(=O)c1cccc(-c2csc(N3CCC(C(N)=O)CC3)n2)c1` showed a half-life of over 30 min. With `N#Cc1cc(NC(=O)Nc2nnc(-c3ccncc3)s2)ccc1-c1cn[nH]c1` the half-life was over 30 min. `Cc1cnc(-c2ccccc2C(F)F)nc1NCC1CN(c2cnccn2)C1` showed a half-life of 1.8 min. With `O=C(Nc1ccccc1)C1CC(=O)N(c2n[nH]c3cc(Br)ccc23)C1` (stereo not given) the half-life was over 30 min. For `CC(C)C[C@H](NC(=O)[C@H](CCc1ccccc1)NC(=O)CN1CCOCC1)C(=O)N[C@@H](Cc1ccccc1)C(=O)N[C@@H](CC(C)C)C(=O)[C@@]1(C)CO1`, the half-life was 3.52 min. `CCN(c1cc(C#CCN2CCOCC2)cc(C(=O)NCc2c(C)cc(C)[nH]c2=O)c1C)C1CCC(N(C)CCOC)CC1` (stereo not given) showed a half-life of over 30 min. In the case of `CCOC(=O)N1CCN(Cc2nc3c(c(=O)n(C)c(=O)n3C)n2Cc2ccc(F)cc2)CC1`, the half-life is reported as 8.7 min. For `COc1ccc(-c2nc(N3CCOCC3)c3sc(CN(C)c4ncc(C(=O)NO)cn4)cc3n2)cn1`, the half-life was over 30 min. For `CCc1ccccc1Nc1ncnc2c1cnn2-c1ccc(Cl)cc1`, the half-life was 7.13 min. Compound `Cc1ccc2nc(-c3cc(NC(=O)c4ccc5c(c4)OCCO5)ccc3Cl)oc2c1` has a half-life of over 30 min. Work on `COc1ccccc1N1CCN(c2ccc3cc(S(=O)(=O)N4CCCCC4)ccc3n2)CC1` yielded a half-life of 2.16 min. `CN1CCc2cc3c(cc2C1)OCO3` showed a half-life of 1 min. Compound `N#Cc1ccc(-c2csc(N3CCC(C(N)=O)CC3)n2)cc1` has a half-life of 16.2 min. In the case of `CN(C)c1ccc2cc(C(=O)N[C@@H](CCCN=C(N)CCl)C(=O)NCc3ccccc3)ccc2c1`, the half-life is reported as 5.3 min. Compound `CN(c1ncccc1CNc1nc(Nc2ccc3c(c2)CC(=O)N3)ncc1C(F)(F)F)S(C)(=O)=O` has a half-life of over 30 min.
